Consider four compounds from publication PMC2920814 (PLoS ONE, 2010).

In general, Kp refers to the ratio of the level in a tissue or fluid to that in plasma or blood. What is called IC50 is the concentration at which inhibition is half-maximal.

“And” between values parts separate entries of the source, which are not always exact repeats. Equal entries are not always repeated. “Also recorded” adds a separate entry of the source.

For data set [1], the target named is Erk2 (Mus musculus, UniProt P63085). The data set is described as follows: Affinity chromatography on immobilized drugs, Western blotting. It counts as binding. Particulars: adult mouse brain extract 500 µg, sepharose beads. Background: Immunoblotting shows a protein as a band on a membrane.
For another data set, the target named is T1, pyridoxal kinase (PDXK) (Mus musculus, UniProt Q8K183).
T1 sequence (Q8K183 1-312): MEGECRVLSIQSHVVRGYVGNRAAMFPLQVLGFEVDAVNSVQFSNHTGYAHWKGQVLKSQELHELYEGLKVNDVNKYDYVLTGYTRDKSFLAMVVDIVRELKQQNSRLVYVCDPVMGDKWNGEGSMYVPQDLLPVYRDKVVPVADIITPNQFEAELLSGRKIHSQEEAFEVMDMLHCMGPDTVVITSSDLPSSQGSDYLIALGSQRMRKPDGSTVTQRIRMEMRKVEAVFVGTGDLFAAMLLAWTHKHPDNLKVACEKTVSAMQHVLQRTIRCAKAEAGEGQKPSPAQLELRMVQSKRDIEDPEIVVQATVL
Described as above. Particulars: adult mouse brain extract 500 µg, sepharose beads. Type of data set: binding.

A short description of data set [2]: Blood brain barrier permeability, brain and plasma level after IV injection (LC/MS/MS). It counts as in vivo. Particulars: SD, rat, brain, sampling time 15 min, healthy adult rats, n = 2. As to the method:
Dosed animals were sacrificed at 15 min after the end of the intravenous injection. Blood were collected through the retro-orbital sinus using a capillary tube. Animals were then perfused with saline solution into the heart to […] the brain. Brain was collected, and homogenized. Both plasma and brain samples were analyzed using LC/MS/MS determination, according to ADME-Bioanalysis (Vergeze, France) procedures.

The subject of data set [3] is E18 mixed hippocampal cell cultures. Description: Kainate (KA)-induced neuronal excitotoxicity, PI staining. Type of data set: cell-based, rat (Wistar). Particulars: KA 200 µM for 5 hrs; for neuroprotective effect on KA-induced neuronal death (relative neuronal death): 10 div cultures, compound added with KA, 0.05 to 50 µM.
Data set [4] relates to permanent focal cerebral ischemia (pMCAo) in adult mice. Description: Permanent middle cerebral artery occlusion (pMCAo), infarct volumes by TTC staining. Type of data set: in vivo, mouse (C57 b/6). Particulars: 3 hrs after occlusion.
For the next data set, the system named is CK1. Also noted: method as in PMID 15975926, PMID 15985434. Particulars: previously described; ref [30], [31]; cited from earlier work.
In a further data set the test system is CDK2/CyclE. The arrangement: method as in PMID 15975926, PMID 15985434. Particulars: previously described; ref [30], [31]; cited from earlier work.
For a further data set, the system named is CDK1/CyclB. Also noted: method as in PMID 15975926, PMID 15985434. Particulars: previously described; ref [30], [31]; cited from earlier work.
Data set [5] deals with ERK2. The arrangement: method as in PMID 15975926, PMID 15985434. Particulars: previously described; ref [30], [31]; cited from earlier work.
The test system of another data set is CDK5/p25. Also noted: method as in PMID 15975926, PMID 15985434. Particulars: previously described; ref [30], [31]; cited from earlier work.
The mark [6] stands for this setting: ICV infusion 500 µM starting 48 hrs before pMCAo.
[7] abbreviates: IP 25 mg/kg 15 min pre- and 1 hr post-MCAo, 25 mg/kg.

Sequence of Erk2 (P63085 whole entry): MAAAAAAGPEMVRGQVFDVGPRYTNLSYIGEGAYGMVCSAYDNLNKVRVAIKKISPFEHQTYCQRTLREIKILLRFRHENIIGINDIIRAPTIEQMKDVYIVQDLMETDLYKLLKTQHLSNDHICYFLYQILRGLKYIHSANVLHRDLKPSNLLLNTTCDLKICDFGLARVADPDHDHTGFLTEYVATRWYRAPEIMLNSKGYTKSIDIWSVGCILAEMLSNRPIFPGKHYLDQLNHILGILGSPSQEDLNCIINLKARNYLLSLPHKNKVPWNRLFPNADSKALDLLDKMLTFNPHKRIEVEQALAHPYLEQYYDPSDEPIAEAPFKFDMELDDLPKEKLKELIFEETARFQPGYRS

As for `CC[C@H](CO)Nc1nc(NCc2ccccc2)c2ncn(C(C)C)c2n1` [(R)-roscovitine], the “binding of Erk2 to immobilized compound” value at Erk2 [1] is on record as “bind”. The “binding of PDXK to immobilized compound” value on pyridoxal kinase (PDXK) was “bind”.

Consider `CC[C@@H](CO)Nc1nc(NCc2ccccc2)c2ncn(C(C)C)c2n1` [(S)-roscovitine], for which the Kp at 0.25 h stood at 0.15 in [2] (20 mg/kg, i.v. 20 mg/kg) and 0.17 in [2] (30 mg/kg, i.v. 30 mg/kg). Also, the “binding of Erk2 to immobilized compound” value on Erk2 [1] was “preferentially bound and bind”. Also, the “binding of PDXK to immobilized compound” value on pyridoxal kinase (PDXK) was “did not bind”. Further, the “neuroprotective effect compared to the (R) stereoisomer” value in [3] (0.5 µM) was “significantly stronger neuroprotective effect; also recorded: significantly increased neuroprotective activity”. The “decrease of the total infarct volume compared to vehicle” value was 28% and 27.7% in data set [4] (setting [6]); 31% and 30.7% in data set [4] (setting [7]). Moreover, the “ischemic core volume compared to vehicle” value in [4] (setting [6]) is given as “comparable”; in data set [4] (IP 25 mg/kg 15 min pre- and 1 hr post-MCAo), “comparable”. The “reduction of the ischemic (hypometabolic) zone volume compared to vehicle” value in data set [4] (setting [6]) was 36% and 35.8%. For the same compound, in data set [4] (setting [7]), the “decrease of the ischemic (hypometabolic) zone volume compared to vehicle” value was 39% and 38.9%.

Consider `CC[C@H](CO)Nc1nc(N(C)Cc2ccccc2)c2ncn(C(C)C)c2n1` [N^6-methyl (R)-roscovitine], for which the IC50 in the data set on CK1 was more than 1000 µM; in the data set with CDK2/CyclE it was 250 µM; in the data set on CDK1/CyclB, 45 µM; in the data set on ERK2 [5], more than 1000 µM; in the data set on CDK5/p25, 45 µM. For the same compound, on pyridoxal kinase (PDXK), the “binding of PDXK to immobilized compound” value is on record as “bind”. Besides, the “neuroprotective effect on KA-induced neuronal death (relative neuronal death)” value in data set [3] was “no significant neuroprotective effect”; in data set [3] (listed as N^6-methyl-(R)-roscovitine) it was “did not exhibited any neuroprotective effect”.

Regarding `CC[C@H](CO)Nc1nc(OCc2ccccc2)c2ncn(C(C)C)c2n1` [O^6-(R)-roscovitine], the IC50 is more than 1000 µM with CK1; 250 µM in the data set on CDK2/CyclE; 100 µM in the data set on CDK1/CyclB; 700 µM in the data set with ERK2 [5]; 200 µM in the data set with CDK5/p25. Besides, the “neuroprotective effect on KA-induced neuronal death (relative neuronal death)” value in data set [3] is on record as “no significant neuroprotective effect; also recorded: did not exhibited any neuroprotective effect”.
